The values that follow come from US20050014743A1, “Combination of an NMDA receptor antagonist and a selective serotonin reuptake inhibitor for the treatment of depression and other mood disorders” (Forest Laboratories, Inc., priority 2003, published 2005).

Test [1] relates to C57/B1 mice. Briefly: mouse tail suspension test (TST). The test is classed as in vivo. The settings on record: for immobility: given with vehicle; for duration of immobility: monotherapy, doses 5-20 mg/kg IP.
In test [2] the test system is C57/B1 mice. Briefly: locomotor activity test (actometers, 6 min). The test is classed as in vivo, mouse.
The next test concerns the target T1, NMDA receptor (Rattus norvegicus, UniProt P35439).
T1 construct: NMDA receptor-mediated currents (in rat hippocampal slices); from tissue; host or cells: rat hippocampal slices
Conditions: rat hippocampal slices; cited from earlier work.

A further test has as its system 5-HT3 receptor. Conditions: cited from earlier work; for inhibition of 5HT3-mediated current: memantine: native N1E-115 and heterologous HEK-293 cells.

“Also recorded” adds a separate entry of the source.

As to `COc1ccc(C(CN(C)C)C2(O)CCCCC2)cc1` (stereo not shown) [VEN, venlafaxine], the immobility entry in the test with C57/B1 mice [1] (5 mg/kg IP) and in the test on C57/B1 mice [1] (20 mg/kg IP) was “decreased immobility” throughout. Also, in the test on C57/B1 mice [1], the duration of immobility result is “decrease in the duration of immobility”. Besides, the locomotor activity entry in the test on C57/B1 mice [2] (given with vehicle (combination study), 20 mg/kg IP, 20 mg/kg) is on record as “increased locomotor activity; also recorded: also observed for the dose of 20 mg/kg in one of two studies”; in the test on C57/B1 mice [2] (given with vehicle, 5 mg/kg IP, 5 mg/kg), “without effect”; with C57/B1 mice [2] (monotherapy, 40 mg/kg IP, 40 mg/kg), “increased it; also recorded: stimulated locomotion”.

As to `CN(C)CCCN1c2ccccc2CCc2ccccc21` [IMI, imipramine], in the test on C57/B1 mice [1] (20 mg/kg IP), the immobility entry is listed as “decreased immobility”. Moreover, the duration of immobility result with C57/B1 mice [1] is “decrease in the duration of immobility”. Moreover, the locomotor activity result with C57/B1 mice [2] (mouse, in vivo) is recorded as “decreased it; also recorded: decreased locomotor activity”; in the test on C57/B1 mice [2] (mouse, in vivo, ip, 20 mg/kg), “decreased locomotor activity”.

Consider `CC12CC3CC(C)(C1)CC(N)(C3)C2` [memantine, 1-amino-3,5-dimethyl adamantane], for which the “inhibition of NMDA receptor-mediated currents” value on NMDA receptor is reported as “inhibit”. For the same compound, the “affinity for 5HT3-mediated current relative to NMDA receptor-mediated currents” value with 5-HT3 receptor (N1E-115 / HEK-293 cells vs rat hippocampal slices) is “approximately equal affinity”. For the same compound, in the test with 5-HT3 receptor, the “inhibition of 5HT3-mediated current” value is “inhibit”.

In the case of `CNCCC(Oc1ccc(C(F)(F)F)cc1)c1ccccc1` (stereo not shown) [FLU, fluoxetine], the immobility result with C57/B1 mice [1] (20 mg/kg IP) is reported as “decreased immobility”. In the test on C57/B1 mice [1], the duration of immobility result is listed as “decrease in the duration of immobility”. Besides, in the test on C57/B1 mice [2] (mouse, in vivo), the locomotor activity result is “did not change locomotor activity; also recorded: generally did not affect locomotor activity”.

On to `CC1(C)CC(C)(C)CC(C)(N)C1` [NER, 1-amino-1,3,3,5,5-pentamethylcyclohexane], for which the immobility result was “increased immobility; also recorded: without effect on immobility time” with C57/B1 mice [1] (2.5 mg/kg IP, 2.5 mg/kg) and “decreased immobility” in the test on C57/B1 mice [1] (20 mg/kg IP, 20 mg/kg). In addition, the duration of immobility entry in the test on C57/B1 mice [1] is reported as “decreased the duration of immobility”. Moreover, in the test with 5-HT3 receptor, the “inhibition of 5HT3-mediated current” value is reported as “inhibit”. For the same compound, the locomotor activity entry is given as “increased locomotor activity” in the test with C57/B1 mice [2] (given with vehicle (combination study), 20 mg/kg IP) and “increased locomotor activity; also recorded: consistent locomotor stimulation” with C57/B1 mice [2] (monotherapy, doses 5-20 mg/kg IP).
